Assay results from the OligoGym collection.
Oligonucleotides are written 5' to 3', each unit as a sugar letter and its base; * is a phosphorothioate linkage, no mark a phosphodiester; rarer units and linkages stand in square brackets, end groups in braces. Plain capitals give the bases only. Oligonucleotides are given in HELM: sugar(base)linkage, 5' to 3'; d 2'-deoxyribose, r ribose, m 2'-O-methylribose, p phosphate. ss, as = sense and antisense strand; d = 2'-deoxy (DNA); r = 2'-OH (RNA)
Note: test concentration or dose not given here.

The substances below were run against Cacnb1 (rat) (assay: reporter assay of Huesken 2005). Details: siRNA.
Work on “RNA1{r(A)p.r(A)p.r(C)p.r(C)p.r(A)p.r(A)p.r(U)p.r(U)p.r(G)p.r(G)p.r(A)p.r(A)p.r(G)p.r(A)p.r(U)p.r(G)p.r(C)p.r(C)p.r(U)p.d(T)p.d(T)}|RNA2{r(A)p.r(G)p.r(G)p.r(C)p.r(A)p.r(U)p.r(C)p.r(U)p.r(U)p.r(C)p.r(C)p.r(A)p.r(A)p.r(U)p.r(U)p.r(G)p.r(G)p.r(U)p.r(U)p.d(C)p.d(T)}$$$RNA1{StrandType:ss}|RNA2{StrandType:as}$” yielded a normalised inhibition (eCFP-eYFP dual reporter) of 50%.
“RNA1{r(A)p.r(A)p.r(C)p.r(C)p.r(G)p.r(C)p.r(C)p.r(U)p.r(C)p.r(A)p.r(G)p.r(C)p.r(U)p.r(C)p.r(C)p.r(A)p.r(G)p.r(C)p.r(A)p.d(T)p.d(T)}|RNA2{r(U)p.r(G)p.r(C)p.r(U)p.r(G)p.r(G)p.r(A)p.r(G)p.r(C)p.r(U)p.r(G)p.r(A)p.r(G)p.r(G)p.r(C)p.r(G)p.r(G)p.r(U)p.r(U)p.d(T)p.d(T)}$$$RNA1{StrandType:ss}|RNA2{StrandType:as}$” showed a normalised inhibition (eCFP-eYFP dual reporter) of 46.2%.
Work on “RNA1{r(A)p.r(A)p.r(G)p.r(A)p.r(A)p.r(U)p.r(G)p.r(A)p.r(G)p.r(C)p.r(U)p.r(G)p.r(G)p.r(A)p.r(G)p.r(G)p.r(G)p.r(C)p.r(U)p.d(T)p.d(T)}|RNA2{r(A)p.r(G)p.r(C)p.r(C)p.r(C)p.r(U)p.r(C)p.r(C)p.r(A)p.r(G)p.r(C)p.r(U)p.r(C)p.r(A)p.r(U)p.r(U)p.r(C)p.r(U)p.r(U)p.d(A)p.d(T)}$$$RNA1{StrandType:ss}|RNA2{StrandType:as}$” yielded a normalised inhibition (eCFP-eYFP dual reporter) of 54.2%.
“RNA1{r(A)p.r(A)p.r(G)p.r(G)p.r(G)p.r(C)p.r(G)p.r(G)p.r(U)p.r(U)p.r(C)p.r(A)p.r(A)p.r(A)p.r(A)p.r(G)p.r(G)p.r(U)p.r(C)p.d(T)p.d(T)}|RNA2{r(G)p.r(A)p.r(C)p.r(C)p.r(U)p.r(U)p.r(U)p.r(U)p.r(G)p.r(A)p.r(A)p.r(C)p.r(C)p.r(G)p.r(C)p.r(C)p.r(C)p.r(U)p.r(U)p.d(T)p.d(C)}$$$RNA1{StrandType:ss}|RNA2{StrandType:as}$” gave a normalised inhibition (eCFP-eYFP dual reporter) of 57.7%.

What follows are substances tested against UBE2J1 (assay: reporter assay of Huesken 2005). Details: siRNA.
“sense rGrArArGrUrCrArArUrUrCrArUrCrUrGrGrArAdTdT / antisense rUrUrCrCrArGrArUrGrArArUrUrGrArCrUrUrCdTdG” gave a normalised inhibition (eCFP-eYFP dual reporter) of 75.3%.
With “sense rGrArCrCrArArGrArArGrCrCrArArArGrArArCdTdT / antisense rGrUrUrCrUrUrUrGrGrCrUrUrCrUrUrGrGrUrCdAdG” the normalised inhibition (eCFP-eYFP dual reporter) was 56.7%.
For “sense rGrArGrCrArUrCrUrCrArGrGrCrCrArUrCrArUdTdT / antisense rArUrGrArUrGrGrCrCrUrGrArGrArUrGrCrUrCdAdA”, the normalised inhibition (eCFP-eYFP dual reporter) was 64.1%.
“sense rGrArGrUrArUrArArGrGrArCrArGrCrArUrUrAdTdT / antisense rUrArArUrGrCrUrGrUrCrCrUrUrArUrArCrUrCdCdA” showed a normalised inhibition (eCFP-eYFP dual reporter) of 91.4%.
With “sense rGrArGrUrCrArGrArCrUrUrArArArCrCrArCrUdTdT / antisense rArGrUrGrGrUrUrUrArArGrUrCrUrGrArCrUrCdAdG” the normalised inhibition (eCFP-eYFP dual reporter) was 88.7%.
Work on “sense rGrCrArGrArArGrUrCrArArUrUrCrArUrCrUrGdTdT / antisense rCrArGrArUrGrArArUrUrGrArCrUrUrCrUrGrCdCdT” yielded a normalised inhibition (eCFP-eYFP dual reporter) of 54.4%.
With “sense rGrCrCrArCrCrArGrArGrUrArUrCrCrCrArUrGdTdT / antisense rCrArUrGrGrGrArUrArCrUrCrUrGrGrUrGrGrCdAdG” the normalised inhibition (eCFP-eYFP dual reporter) was 53.6%.
“sense rGrCrCrUrUrUrArArArArUrCrUrGrGrArArGrCdTdT / antisense rGrCrUrUrCrCrArGrArUrUrUrUrArArArGrGrCdAdA” showed a normalised inhibition (eCFP-eYFP dual reporter) of 50.4%.
For “sense rGrCrGrCrCrGrGrGrCrCrCrArGrCrArGrCrArGdTdT / antisense rCrUrGrCrUrGrCrUrGrGrGrCrCrCrGrGrCrGrCdTdG”, the normalised inhibition (eCFP-eYFP dual reporter) was 35.3%.
“sense rGrCrUrGrUrArCrUrGrArUrUrGrUrCrArUrCrCdTdT / antisense rGrGrArUrGrArCrArArUrCrArGrUrArCrArGrCdTdG” showed a normalised inhibition (eCFP-eYFP dual reporter) of 62.4%.
“sense rGrGrArGrArGrGrGrArGrCrCrArUrArGrGrUrUdTdT / antisense rArArCrCrUrArUrGrGrCrUrCrCrCrUrCrUrCrCdTdT” gave a normalised inhibition (eCFP-eYFP dual reporter) of 61%.
In the case of “sense rGrUrUrGrCrCrUrUrUrArArArArUrCrUrGrGrAdTdT / antisense rUrCrCrArGrArUrUrUrUrArArArGrGrCrArArCdAdG”, the normalised inhibition (eCFP-eYFP dual reporter) is reported as 55.2%.
In the case of “sense rGrUrUrUrGrArGrCrArUrCrUrCrArGrGrCrCrAdTdT / antisense rUrGrGrCrCrUrGrArGrArUrGrCrUrCrArArArCdAdG”, the normalised inhibition (eCFP-eYFP dual reporter) is reported as 72.6%.
Work on “sense rUrArArCrGrGrCrUrArArUrGrGrUrCrGrArUrUdTdT / antisense rArArUrCrGrArCrCrArUrUrArGrCrCrGrUrUrAdGdG” yielded a normalised inhibition (eCFP-eYFP dual reporter) of 84%.
“sense rUrArArUrGrGrUrCrGrArUrUrUrGrArArGrUrGdTdT / antisense rCrArCrUrUrCrArArArUrCrGrArCrCrArUrUrAdGdC” was tested, and the normalised inhibition (eCFP-eYFP dual reporter) was 46.3%.
In the case of “sense rUrArUrCrUrGrGrCrArArArCrGrArArUrArCrAdTdT / antisense rUrGrUrArUrUrCrGrUrUrUrGrCrCrArGrArUrAdTdA”, the normalised inhibition (eCFP-eYFP dual reporter) is reported as 91.6%.
“sense rUrCrArUrCrArArCrCrUrArCrCrCrArArCrCrUdTdT / antisense rArGrGrUrUrGrGrGrUrArGrGrUrUrGrArUrGrAdAdA” gave a normalised inhibition (eCFP-eYFP dual reporter) of 47.9%.
Substance “sense rUrCrUrGrUrUrUrGrArGrCrArUrCrUrCrArGrGdTdT / antisense rCrCrUrGrArGrArUrGrCrUrCrArArArCrArGrAdTdT” has a normalised inhibition (eCFP-eYFP dual reporter) of 56%.
“sense rUrGrCrCrArArCrArArArArGrGrArGrArGrGrGdTdT / antisense rCrCrCrUrCrUrCrCrUrUrUrUrGrUrUrGrGrCrAdTdA” was tested, and the normalised inhibition (eCFP-eYFP dual reporter) was 28.7%.
In the case of “sense rUrGrGrCrArArArCrGrArArUrArCrArUrArUrUdTdT / antisense rArArUrArUrGrUrArUrUrCrGrUrUrUrGrCrCrAdGdA”, the normalised inhibition (eCFP-eYFP dual reporter) is reported as 110%.
In the case of “sense rUrGrGrUrGrGrGrUrCrArGrCrUrGrUrArCrUrGdTdT / antisense rCrArGrUrArCrArGrCrUrGrArCrCrCrArCrCrAdTdG”, the normalised inhibition (eCFP-eYFP dual reporter) is reported as 83.4%.
For “sense rUrGrUrCrUrArCrUrUrCrArCrCrArGrArUrGrUdTdT / antisense rArCrArUrCrUrGrGrUrGrArArGrUrArGrArCrAdAdC”, the normalised inhibition (eCFP-eYFP dual reporter) was 73.1%.
Work on “sense rUrUrCrArCrUrArArCrUrGrArUrUrUrArCrArAdTdT / antisense rUrUrGrUrArArArUrCrArGrUrUrArGrUrGrArAdAdA” yielded a normalised inhibition (eCFP-eYFP dual reporter) of 67.5%.
Work on “sense rUrUrCrCrArGrGrGrUrGrCrUrArCrGrGrCrCrAdTdT / antisense rUrGrGrCrCrGrUrArGrCrArCrCrCrUrGrGrArAdTdG” yielded a normalised inhibition (eCFP-eYFP dual reporter) of 75.1%.
With “sense rUrUrGrCrCrUrUrUrArArArArUrCrUrGrGrArAdTdT / antisense rUrUrCrCrArGrArUrUrUrUrArArArGrGrCrArAdCdA” the normalised inhibition (eCFP-eYFP dual reporter) was 70.5%.
Work on “sense rUrUrUrArUrCrArCrGrGrGrCrGrGrArUrArGrUdTdT / antisense rArCrUrArUrCrCrGrCrCrCrGrUrGrArUrArArAdCdT” yielded a normalised inhibition (eCFP-eYFP dual reporter) of 51.8%.
